Experimental data published in article PMC4167715 (Biochemistry, 2013).

Columns and labels:
[1] = target: E. coli class II fructose 1,6-bisphosphate aldolase (EcFBA) (Escherichia coli, UniProt P0AB71); assay: coupled fluorescence FBP cleavage assay, single concentration; assay type: biochemical; conditions: read-out: % inhibition at 25 μM
[2] = target: S. aureus class II fructose 1,6-bisphosphate aldolase (SaFBA) (Staphylococcus aureus, UniProt Q5HE75); assay: biochemical; conditions: read-out: % inhibition at 25 μM
Sequence of S. aureus class II fructose 1,6-bisphosphate aldolase (SaFBA) (Q5HE75 whole entry): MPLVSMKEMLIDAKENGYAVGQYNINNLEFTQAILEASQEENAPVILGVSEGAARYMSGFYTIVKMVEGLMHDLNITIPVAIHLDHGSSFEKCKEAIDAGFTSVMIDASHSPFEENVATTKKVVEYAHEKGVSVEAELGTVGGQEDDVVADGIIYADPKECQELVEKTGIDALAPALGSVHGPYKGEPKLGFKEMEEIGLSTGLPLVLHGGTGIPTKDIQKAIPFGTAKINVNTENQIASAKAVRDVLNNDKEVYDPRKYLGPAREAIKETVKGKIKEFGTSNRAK

[3] = target: M. tuberculosis class II fructose 1,6-bisphosphate aldolase (MtFBA) (Mycobacterium tuberculosis, UniProt P9WQA3); assay: X-ray crystal structure; assay type: binding
Sequence of M. tuberculosis class II fructose 1,6-bisphosphate aldolase (MtFBA) (P9WQA3 whole entry): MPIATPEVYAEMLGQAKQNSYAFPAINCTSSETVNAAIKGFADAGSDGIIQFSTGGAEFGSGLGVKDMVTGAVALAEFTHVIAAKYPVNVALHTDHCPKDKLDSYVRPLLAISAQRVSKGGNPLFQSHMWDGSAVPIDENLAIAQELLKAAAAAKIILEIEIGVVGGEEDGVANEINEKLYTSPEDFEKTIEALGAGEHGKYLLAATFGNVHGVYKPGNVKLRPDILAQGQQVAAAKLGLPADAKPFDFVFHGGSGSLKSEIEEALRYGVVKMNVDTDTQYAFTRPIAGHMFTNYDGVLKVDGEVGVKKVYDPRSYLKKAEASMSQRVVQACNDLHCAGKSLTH

Sequence of E. coli class II fructose 1,6-bisphosphate aldolase (EcFBA) (P0AB71 2-359): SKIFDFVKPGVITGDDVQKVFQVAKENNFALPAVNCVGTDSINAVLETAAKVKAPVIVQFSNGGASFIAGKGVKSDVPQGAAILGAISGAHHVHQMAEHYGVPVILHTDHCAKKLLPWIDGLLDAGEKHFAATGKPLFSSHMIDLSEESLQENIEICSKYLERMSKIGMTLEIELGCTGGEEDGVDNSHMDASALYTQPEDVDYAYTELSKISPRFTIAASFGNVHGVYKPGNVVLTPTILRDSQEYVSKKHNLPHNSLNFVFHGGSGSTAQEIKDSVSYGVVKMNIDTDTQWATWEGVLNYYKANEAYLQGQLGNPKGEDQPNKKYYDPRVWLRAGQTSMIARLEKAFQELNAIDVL

Question: Which inhibition at 25 µM [1] does the source give for `O=C(O)c1ccc2cccc(O)c2n1` [HCA, 8-hydroxyquinoline-2-carboxylic acid] here?
Answer: 42.2 ± 2.8%

Question: And the inhibition at 25 µM [2]?
Answer: 64.3 ± 0.6%

Question: And the Kd [3]?
Answer: 70.8 ± 2.7 µM
